Measurements taken from patent US4001325A, “α-Chloroacetanilide selective herbicides” (Diamond Shamrock Corporation, priority 1973, dated 1977).

How the values were obtained:
[1] = test system: grass species: red millet, green foxtail, Japanese millet; assay: Greenhouse preemergence herbicide test, grasses; type: in vivo, Panicum milliacem, Setaria viridis, Echinochloa frumentacea; settings: pre-emergence, 336 h, two weeks after treatment
Protocol: To illustrate the preemergence herbicidal efficiency of the alkyl-substituted 2-chloro-N-propargylacetanilides of this invention, test formulations are prepared of each compound by mixing 20 ml of an acetone solution containing 0.125 g of chemical with 20 ml of water containing 0.01 g of Triton X-155 surfactant. The resultant formulations contain 3125 ppm of test compound, 50% by volume of acetone and 0.025% by weight of surfactant. Appropriate lower concentrations are obtained by diluting this formulation with surfactant-acetone solution so that the concentration of adjuvants is maintained at the original levels.
Seeds of three broadleaf and three grass species are planted in soil contained in 10 inch × 8 inch × 3 inch aluminum pans filled with 1.5 inches of composted soil. The broadleaf species are pigweed (Amaranthus retroflexus), velvetleaf (Abutilon theophrasti), and morningglory (Ipomea coccinea); the grasses are red millet (Panicum milliacem), green foxtail (Setaria viridis) and Japanese millet (Echinochloa frumentacea).
The seeded pans are sprayed so that the soil surface is uniformly covered with dilutions of the stock formulation providing dosage rates of the test compounds as shown in the following table.
Two weeks after treatment, percent control (plant kill) at each dosage rate is estimated with results as follows: […]

Yellow Foxtail [2] = assay: Example 18 preemergence herbicide test in different soils, % control; type: in vivo; settings: three weeks
Protocol: (§1) To further illustrate the herbicidal activity of compounds of this invention in different types of soil as would be encountered in different crop growing localities, a preemergence herbicide test is conducted generally as outlined previously herein. Two light sandy soils are employed containing 0.7% and 1.8% organic matter (O.M.), respectively, along with two loam-type, heavier soils containing either 2.0% or 5-5.5% organic matter (O.M.).
(§2) The test plots are all sprayed uniformly with formulations of the test compounds providing 2.0, 1.0, 0.5, and 0.25 pound of active chemical per acre (lb/A).
(§3) Prior to treatment, the soil plots are sown to field corn, soybean, and grain sorghum crops and seeds of barnyard-grass and yellow foxtail.
(§4) Three weeks after planting, the percent control of plant growth is rated from 0% (no injury) to 100% (total destruction).

Sorghum = assay: Example 18 phytotoxic effects on crop stands in different soils; type: in vivo, grain sorghum
Protocol: as §1, §2, §3
Three weeks after planting, the percent control of plant growth is rated from 0% (no injury) to 100% (total destruction). The results obtained are as follows:
Phytotoxic effects on the crop stands are similarly rated with the following results: […]

Yellow Foxtail [3] = assay: Example 17 selective herbicidal activity in corn crop, weed kill; type: in vivo, Setaria lutescens; settings: Setaria, 3-4 weeks after planting
Description: (§5) This example illustrates the selective herbicidal activity of two of the presently preferred compounds of this invention against various weed species in a corn crop.
(§6) Plots of light sandy soil, cleared of all weeds, are uniformly treated with aqueous dispersions prepared from an emulsifiable concentrate containing 2- 4 pounds of active ingredient per gallon. Diluted aqueous dispersions are applied as surface treatments at 2.0, 1.0, 0.5, and 0.25 pound of active ingredient per acre (lb/A).
(§7) The treated test plots are sown to corn and with seeds of the following weed species:
(§8) Three to four weeks after planting, the degree of damage to both the corn stands and the weed plants is assessed from a rating of 0% (no injury) to 100% (complete destruction).

Goosegrass = assay: as above; type: in vivo, Eleusine indica; settings: 3-4 weeks after planting
Description: as §5, §6, §7, §8

Morningglory = assay: as above; type: in vivo, Ipomoea sp.; settings: Ipomoea, 3-4 weeks after planting
Description: as §5, §6, §7, §8

Fall Panicum = assay: as above; type: in vivo; settings: Panicum dichotomiflorum, 3-4 weeks after planting
Description: as §5, §6, §7, §8

Johnsongrass = assay: as above; type: in vivo; settings: Sorghum halepense, 3-4 weeks after planting
Description: as §5, §6, §7, §8

Velvetleaf = assay: as above; type: in vivo; settings: Abutilon theophrasti, 3-4 weeks after planting
Description: as §5, §6, §7, §8

Barnyardgrass = assay: Example 18 preemergence herbicide test in different soils, % control; type: in vivo, barnyard-grass; settings: three weeks
Protocol: as §1, §2, §3, §4

[4] = 0.5 lb/A, Heavy Soil 5-5.5% O.M.
[5] = 0.5 lb/A, Medium Soil 2.0% O.M.
[6] = 1.0 lb/A, Heavy Soil 5-5.5% O.M.
[7] = 1.0 lb/A, Medium Soil 2.0% O.M.
[8] = 2.0 lb/A, Heavy Soil 5-5.5% O.M.
[9] = 2.0 lb/A, Medium Soil 2.0% O.M.

C#CCN(C(=O)CCl)c1c(C)cccc1CC [Example 15, 2-Chloro-2'-methyl-6'-ethyl-N-propargylacetanilide]
pest or weed control at 69.4927 g/ha ([1]; 0.062 lb/A): 0%
pest or weed control at 140.106 g/ha ([1]; 0.125 lb/A): 70%
pest or weed control at 280.212 g/ha ([1]; 0.25 lb/A): 85%
pest or weed control at 560.425 g/ha ([1]; 0.5 lb/A): 98%
pest or weed control at 1120.85 g/ha ([1]; 1.0 lb/A): 99%
% Control, Yellow Foxtail (Yellow Foxtail [2]; [4]): 98%
% Control, Yellow Foxtail (Yellow Foxtail [2]; [5]): 100%
% Control, Yellow Foxtail (Yellow Foxtail [2]; 0.5 lb/A, Sand 0.7% O.M.): 45%
% Control, Yellow Foxtail (Yellow Foxtail [2]; 0.5 lb/A, Sand 1.8% O.M.): 30%
% Control, Yellow Foxtail (Yellow Foxtail [2]; [6]): 100%
% Control, Yellow Foxtail (Yellow Foxtail [2]; [7]): 100%
% Control, Yellow Foxtail (Yellow Foxtail [2]; 1.0 lb/A, Sand 0.7% O.M.): 65%
% Control, Yellow Foxtail (Yellow Foxtail [2]; 1.0 lb/A, Sand 1.8% O.M.): 65%
% Control, Yellow Foxtail (Yellow Foxtail [2]; [8]): 100%
% Control, Yellow Foxtail (Yellow Foxtail [2]; [9]): 100%
% Control, Yellow Foxtail (Yellow Foxtail [2]; 2.0 lb/A, Sand 0.7% O.M.): 90%
% Control, Yellow Foxtail (Yellow Foxtail [2]; 2.0 lb/A, Sand 1.8% O.M.): 85%
% Phytotoxicity, Sorghum (Sorghum; [4]): 45%
% Phytotoxicity, Sorghum (Sorghum; [5]): 60%
% Phytotoxicity, Sorghum (Sorghum; 0.5 lb/A, Sand 0.7% O.M.): 0%
% Phytotoxicity, Sorghum (Sorghum; 0.5 lb/A, Sand 1.8% O.M.): 20%
% Phytotoxicity, Sorghum (Sorghum; [6]): 90%
% Phytotoxicity, Sorghum (Sorghum; [7]): 100%
% Phytotoxicity, Sorghum (Sorghum; 1.0 lb/A, Sand 0.7% O.M.): 15%
% Phytotoxicity, Sorghum (Sorghum; 1.0 lb/A, Sand 1.8% O.M.): 65%
% Phytotoxicity, Sorghum (Sorghum; [8]): 99%
% Phytotoxicity, Sorghum (Sorghum; [9]): 100%
% Phytotoxicity, Sorghum (Sorghum; 2.0 lb/A, Sand 0.7% O.M.): 50%
% Phytotoxicity, Sorghum (Sorghum; 2.0 lb/A, Sand 1.8% O.M.): 90%
mortality at 280.212 g/ha (Yellow Foxtail [3]; 0.25 lb/A): 82%
mortality at 560.425 g/ha (Yellow Foxtail [3]; 0.5 lb/A): 97%
mortality at 1120.85 g/ha (Yellow Foxtail [3]; 1.0 lb/A): 100%
mortality at 2241.7 g/ha (Yellow Foxtail [3]; 2.0 lb/A): 100%
% Weed Kill, Goosegrass (Goosegrass; 0.25 lb/A): 82%
% Weed Kill, Goosegrass (Goosegrass; 0.5 lb/A): 100%
% Weed Kill, Goosegrass (Goosegrass; 1.0 lb/A): 100%
% Weed Kill, Goosegrass (Goosegrass; 2.0 lb/A): 100%
mortality at 280.212 g/ha (Morningglory; 0.25 lb/A): 0%
mortality at 560.425 g/ha (Morningglory; 0.5 lb/A): 0%
mortality at 1120.85 g/ha (Morningglory; 1.0 lb/A): 0%
mortality at 2241.7 g/ha (Morningglory; 2.0 lb/A): 6%
mortality at 280.212 g/ha (Fall Panicum; 0.25 lb/A): 78%
mortality at 560.425 g/ha (Fall Panicum; 0.5 lb/A): 96%
mortality at 1120.85 g/ha (Fall Panicum; 1.0 lb/A): 97%
mortality at 2241.7 g/ha (Fall Panicum; 2.0 lb/A): 100%
mortality at 280.212 g/ha (Johnsongrass; 0.25 lb/A): 0%
mortality at 560.425 g/ha (Johnsongrass; 0.5 lb/A): 73%
mortality at 1120.85 g/ha (Johnsongrass; 1.0 lb/A): 100%
mortality at 2241.7 g/ha (Johnsongrass; 2.0 lb/A): 100%
mortality at 280.212 g/ha (Velvetleaf; 0.25 lb/A): 0%
mortality at 560.425 g/ha (Velvetleaf; 0.5 lb/A): 27%
mortality at 1120.85 g/ha (Velvetleaf; 1.0 lb/A): 37%
mortality at 2241.7 g/ha (Velvetleaf; 2.0 lb/A): 80%
% Control, Barnyardgrass (Barnyardgrass; [4]): 98%
% Control, Barnyardgrass (Barnyardgrass; [5]): 100%
% Control, Barnyardgrass (Barnyardgrass; 0.5 lb/A, Sand 0.7% O.M.): 75%
% Control, Barnyardgrass (Barnyardgrass; 0.5 lb/A, Sand 1.8% O.M.): 50%
% Control, Barnyardgrass (Barnyardgrass; [6]): 100%
% Control, Barnyardgrass (Barnyardgrass; [7]): 100%
% Control, Barnyardgrass (Barnyardgrass; 1.0 lb/A, Sand 0.7% O.M.): 99%
% Control, Barnyardgrass (Barnyardgrass; 1.0 lb/A, Sand 1.8% O.M.): 90%
% Control, Barnyardgrass (Barnyardgrass; [8]): 100%
% Control, Barnyardgrass (Barnyardgrass; [9]): 100%
% Control, Barnyardgrass (Barnyardgrass; 2.0 lb/A, Sand 0.7% O.M.): 99%
% Control, Barnyardgrass (Barnyardgrass; 2.0 lb/A, Sand 1.8% O.M.): 99%
